Laboratory results: PubChem BioAssay (NCI)
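Interpolation was linear, between the two tested concentrations surrounding the appropriate level; five concentrations were tested over 48 hours in 96-well plates. GI50 marks 50% less growth. Definition used: TGI = concentration required for complete inhibition of growth.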

How the values were obtained:
Experiment in all cases: NCI anticancer screen, dose series, 48 h
786-0 renal = test system: 786-0 renal
A498 renal = test system: A498 renal
A549 NSCLC = test system: A549 NSCLC
ACHN renal = test system: ACHN renal
BT-549 breast = test system: BT-549 breast
CAKI-1 renal = test system: CAKI-1 renal
CCRF-CEM leukemia = test system: CCRF-CEM leukemia
COLO 205 colon = test system: COLO 205 colon
DU-145 prostate = test system: DU-145 prostate
EKVX NSCLC = test system: EKVX NSCLC
HCC-2998 colon = test system: HCC-2998 colon
HCT-116 colon = test system: HCT-116 colon
HCT-15 colon = test system: HCT-15 colon
HL-60(TB) leukemia = test system: HL-60(TB) leukemia
HOP-62 NSCLC = test system: HOP-62 NSCLC
HOP-92 NSCLC = test system: HOP-92 NSCLC
HS 578T breast = test system: HS 578T breast
HT29 colon = test system: HT29 colon
IGROV1 ovarian = test system: IGROV1 ovarian
K-562 leukemia = test system: K-562 leukemia
KM12 colon = test system: KM12 colon
LOX IMVI melanoma = test system: LOX IMVI melanoma
M14 melanoma = test system: M14 melanoma
MALME-3M melanoma = test system: MALME-3M melanoma
MCF7 breast = test system: MCF7 breast
MDA-MB-231 breast = test system: MDA-MB-231 breast
MDA-MB-435 = test system: MDA-MB-435
MOLT-4 leukemia = test system: MOLT-4 leukemia
NCI-H226 lung = test system: NCI-H226 lung

Structure (SMILES): CSc1ccc(/C(=N/N=C(N)N)c2ccc(Cl)cc2)cc1
- GI50 (786-0 renal): 0.754 µM
- TGI (786-0 renal): 2.35 µM
- GI50 (A498 renal): 1.81 µM
- TGI (A498 renal): 4.98 µM
- GI50 (A549 NSCLC): 0.399 µM
- TGI (A549 NSCLC): 4.81 µM
- GI50 (ACHN renal): 0.744 µM
- TGI (ACHN renal): 4.46 µM
- GI50 (BT-549 breast): 1.7 µM
- TGI (BT-549 breast): 3.35 µM
- GI50 (CAKI-1 renal): 0.536 µM
- TGI (CAKI-1 renal): 2.98 µM
- GI50 (CCRF-CEM leukemia): 0.375 µM
- TGI (CCRF-CEM leukemia): 5.99 µM
- GI50 (COLO 205 colon): 0.298 µM
- TGI (COLO 205 colon): 0.864 µM
- GI50 (DU-145 prostate): 0.468 µM
- TGI (DU-145 prostate): 4.24 µM
- GI50 (EKVX NSCLC): 1.03 µM
- TGI (EKVX NSCLC): 14.7 µM
- GI50 (HCC-2998 colon): 0.333 µM
- TGI (HCC-2998 colon): 1.16 µM
- GI50 (HCT-116 colon): 0.364 µM
- TGI (HCT-116 colon): 1.27 µM
- GI50 (HCT-15 colon): 0.34 µM
- TGI (HCT-15 colon): 2.14 µM
- GI50 (HL-60(TB) leukemia): 0.268 µM
- TGI (HL-60(TB) leukemia): 0.784 µM
- GI50 (HOP-62 NSCLC): 0.569 µM
- TGI (HOP-62 NSCLC): 5.66 µM
- GI50 (HOP-92 NSCLC): 0.663 µM
- TGI (HOP-92 NSCLC): 5.51 µM
- GI50 (HS 578T breast): 1.28 µM
- TGI (HS 578T breast): 14.9 µM
- GI50 (HT29 colon): 0.332 µM
- TGI (HT29 colon): 1.13 µM
- GI50 (IGROV1 ovarian): 0.86 µM
- TGI (IGROV1 ovarian): 5.86 µM
- GI50 (K-562 leukemia): 0.342 µM
- TGI (K-562 leukemia): 1.7 µM
- GI50 (KM12 colon): 0.416 µM
- TGI (KM12 colon): 4.01 µM
- GI50 (LOX IMVI melanoma): 0.397 µM
- TGI (LOX IMVI melanoma): 1.52 µM
- GI50 (M14 melanoma): 0.362 µM
- TGI (M14 melanoma): 1.27 µM
- GI50 (MALME-3M melanoma): 0.869 µM
- TGI (MALME-3M melanoma): 2.41 µM
- GI50 (MCF7 breast): 0.355 µM
- TGI (MCF7 breast): 2.06 µM
- GI50 (MDA-MB-231 breast): 0.499 µM
- TGI (MDA-MB-231 breast): 3.18 µM
- GI50 (MDA-MB-435): 0.242 µM
- TGI (MDA-MB-435): 0.593 µM
- GI50 (MOLT-4 leukemia): 0.422 µM
- TGI (MOLT-4 leukemia): 3.52 µM
- GI50 (NCI-H226 lung): 1.18 µM
- TGI (NCI-H226 lung): 6.4 µM
